Measurements from patent US9044428B2, “Neuritogenic peptides” (Neoloch ApS, priority 2005, dated 2015).
Peptide text beside a SMILES is read from it.

Legend:
[1] = test system: Cerebellar granule neuron (CGN) cultures; assay: Stimulation of neurite outgrowth from cerebellar granule neurons in vitro; format: cell-based, rat; details: 24 h treatment of CGN cultures
Excerpt: Cerebellar granule neuron (CGN) cultures were obtained from 3-4-day-old Wistar rats (Charles River, Sulzfeld, Germany, or Moellegaard, Denmark) as previously described by Schousboe et al. (1989). Briefly, the cerebella were dissected, cleared of meninges and blood vessels, chopped, and trypsinized. The neurons were washed in the presence of DNAse 1 and soybean trypsin inhibitor (Sigma), and cellular debris was pelleted by centrifugation; the cells resuspended and then plated on poly-L-lysine (PLL; Sigma)-coated or uncoated microtiter plates in Neurobasal medium supplemented with 4% (w/v) bovine serum albumin (BSA), 2% (v/v) B27, 1% (v/v) glutamax, 100 U/ml penicillin, 100 gi/ml streptomycin, 4.5 g D-glucose/L (Sigma) 0.25% (v/v) sodium pyruvate, and 2% (v/v) 1 M HEPES (Gibco BRL).

[2] = test system: human erythroleukemia cells TF-1; assay: Proliferation of TF-1 cells (BrdU incorporation ELISA); format: cell-based
Procedure: Evaluation of the effect of four EPO-derived peptides on cell proliferation was performed using a TF-1 cell line. The TF-1 cell line was established from sample from patient with severe pancytopenia (human erythroleukemia). The growth of these cells is dependent of the presence of the granulocyte-macrophage colony-stimulating factor (GM-SCF). The TF-1 cells were grown in Dulbecco's Modified Eagle Medium (DMEM) supplemented with 10% (v/v) heat inactivated foetal calf serum (FCS), 2 mM GlutaMAX, penicillin (100 U/ml) and streptomycin (100 μg/ml), 10 mM HEPES, 1 mM sodium pyruvate, 1% fungizone. The growth medium was supplemented with 2 ng/ml GM-CSF. Cell proliferation was determined using a Biotrak ELISA system, version 2 (Amersham Biosciences, UK). The procedure is based on measurement of the levels of 5-bromo-2′-deoxyuridine (BrdU) incorporation during DNA synthesis in proliferating cells. Briefly, passaged cells were washed once with starving medium (culturing medium without GM-CSF) then plated in 96-well Nuclon culture microplates (Nuno, Denmark) at a density of 5000 cells/well and grown in starving medium containing 0.008, 0.04, 0.2, 1.0, 5.0, 25 and 50 μg/ml of the tested compounds. As a positive control the human recombinant erythropoietin (EPO) (Calbiochem, Denmark) was used in a concentration of 2.0 ng/ml. TF-1 cells were allowed to grow in the presence of peptides for 24 h and than to all wells (except negative controls) BrdU was added to a final concentration of 10 μM and cultures were further incubated for 24 h, fixed and processed according to the procedure recommended by manufacturer, […]

[3] = test system: rat brain after TBI; assay: Programmed cell death after traumatic brain injury (TUNEL); format: in vivo; details: s.c., 3 days after lesion
Procedure: (§1) Male rats (wistar) (tree groups, 5 rats/group) were injected s.c with different Epo peptides (each group individually with Epo 2, Epo 3 or Epo 4) three times according to the scheme: • 1. the day before the lesion: a single injection of a peptide per animal (1 mg/100 g animal weight); • 2. the 1st day after the lesion: a single injection of a peptide per animal (1 mg/100 g animal weight): • 3. the 2nd day after the lesion: a single injection of a peptide per animal (1 mg/100 g animal weight); • 4. the 3rd day after the lesion: animals are sacrificed.
(§2) Control groups were a group (4 rats) injected with the vehicle (water) and a group (4 rats), injected with human recombinant EPO (hrEPO) in dose 50 μg/100 g rat according to the above scheme.
A traumatic brain injury (TBI) was induced by applying dry ice (−78 C) to the extracranial surface of the skull for 60 sec, which induces a focal injury in the right fronto-parietal cortex. Three days after the lesion (3 dpl) rats were deeply anesthetized with Brietal (10 mg/100 gr) and fixed by transcardial perfusion with 0.9% NaCl and 0.3% heparin, followed by Zamboni's fixative. The brains were removed, dehydrated according to the standard protocol, embedded in paraffin, and cut in 6-μm-thick frontal sections for further evaluation by immunohistochemistry and TUNEL. […]

[4] = Hematocrit in rats after the brain lesion; format: in vivo; details: rat after brain lesion, peptide 1 mg/100 g s.c., p>0.02
Procedure: as §1, §2

[5] = test system: rat brain after TBI; assay: Oxidative DNA damage after traumatic brain injury (8-oxoguanine immunostaining); format: in vivo; details: s.c., 3 days after lesion
Procedure: as §1, §2
A traumatic brain injury (TBI) was induced by applying dry ice (−78 C) to the extracranial surface of the skull for 60 sec, which induces a focal injury in the right fronto-parietal cortex. Three days after the lesion (3 dpl) rats were deeply anesthetized with Brietal (10 mg/100 gr) and fixed by transcardial perfusion with 0.9% NaCl and 0.3% heparin, followed by Zamboni's fixative. The brains were removed, dehydrated according to the standard protocol, embedded in paraffin, and cut in 6-μm-thick frontal sections for further evaluation by immunohistochemistry and TUNEL.
For immunohistochemistry the sections of the brains were incubated overnight with polyclonal rabbit anti-cow GFAP, GAP-43, 8-oxoguanine, or PSA-NCAM antibodies 1:250 (Dakopatts). The primary antibodies were detected in the sections with biotinylated secondary antibodies followed by incubation with streptavidin-biotin-peroxidase (30 min). Afterwards, the sections were incubated with biotinylated tyramide and streptavidin-peroxidase complex (NEN, Life Science Products, USA, code NEL700A) prepared following the manufacturer recommendations, and visualized with 0.015% H2O2 in DAB/TBS for 10 min.

[6] = test system: Primary cultures of CGN; assay: Survival of CGN induced to undergo apoptosis (low KCl) in vitro; format: cell-based, rat; details: apoptosis induced by reducing KCl to 5 mM, two days
Procedure: Primary cultures of CGN were plated at a density of 100 000 cells/cm^2 on poly-L-lysine coated 8-well permanox slides in Neurobasal-A medium (Gibco BRL) supplemented with 2% (v/v) B27, 0.5% (v/v) glutamax, 100 units/mL penicillin, 100 μg/mL streptomycin and KCl, making the final concentration of KCl in the medium 40 mm, Twenty-four hours after plating, Ara-C (Sigma-Aldrich) was added to a final concentration of 10 μm to avoid proliferation of glial cells, after which the neurons were allowed to differentiate for a further 6 days at 37° C. Apoptotic cell death was induced by washing twice and changing the medium to Basal Medium Eagle (BME; Gibco BRL) supplemented with 1% (v/v) glutamine, 100 U/mL, penicillin and 100 μg/mL streptomycin, 3.5 g d-glucose/L and 1% (v/v) sodium pyruvate (Gibco BRL) together with various concentrations of peptide. Thereby the concentration of potassium in the cultures was reduced to 5 mm KCl (D'Mello et al. 1993). Two days after induction of apoptosis, the cells were fixed with 4% (v/v) formaldehyde and stained with Hoechst 33258 as described for the survival assay employing hippocampal neurons.

CC(C)C[C@H](NC(=O)CNC(=O)[C@H](CO)NC(=O)[C@@H](NC(=O)[C@H](C)NC(=O)[C@H](CCCCN)NC(=O)[C@H](CC(=O)O)NC(=O)[C@@H](NC(=O)[C@H](Cc1c[nH]cn1)NC(=O)[C@H](CC(C)C)NC(=O)[C@@H](N)CCC(N)=O)C(C)C)C(C)C)C(=O)N[C@@H](CCCNC(=N)N)C(=O)N[C@@H](CO)C(=O)N[C@@H](CC(C)C)C(=O)N[C@H](C(=O)N[C@H](C(=O)N[C@@H](CC(C)C)C(=O)N[C@@H](CC(C)C)C(=O)N[C@@H](CCCNC(=N)N)C(=O)N[C@@H](C)C(=O)O)[C@@H](C)O)[C@@H](C)O [Epo3] (H-QLHVDKAVSGLRSLTTLLRA-OH)
neurite outgrowth from CGN (neuritogenic activity) [1]: capable of stimulating neurite outgrowth
neurite outgrowth from CGN (neuritogenic activity) ([1]; listed as SEQ ID NO: 3): strongly induce neurite outgrowth
proliferation of TF-1 cells ([2]; concentration of 50 μg/ml): stimulate proliferation of TF-1 cells
stimulation of haemopoietic cell proliferation (general conclusion) ([2]; no concentration stated): most potent among them
TUNEL-positive apoptotic cells around the necrotic cavity [3]: lowest level of apoptosis
effect on the hematocrit vs control [4]: no statistically significant effect
effect on the hematocrit vs control ([4]; listed as Epo 3): no significant effect
8-oxoguanine positive cells (oxidative DNA damage) [5]: lowest number of the 8-oxoguanine positive cells
protection of CGN induced to undergo apoptosis (neuronal survival) [6]: strongest neuroprotective effect
